Measured values as given in patent US5395947A, “Platinum(II) complex and processes for preparing the same” (Sunkyong Industries, Ltd., priority 1991, dated 1995).

Experiments:
[1] = tested on: murine leukemia L1210 cells; assay: Growth inhibition test on cultured murine leukemia L1210 cells; type: cell-based; settings: 48 hours, 37° C., Trypan blue viability
Method: 1. Growth inhibition test on cultured murine leukemia L1210 cells
Murine leukemia L1210 cells(1×10^5) were treated with various concentrations of the compounds prepared in the above examples in RPMI 1640 medium supplemented with 10% fetal calf serum, and cultured in a 5% CO2 humidified incubator at 37° C. for 48 hours. Their viability, estimated by staining with 0.17% Trypan blue, was compared with that of control cells cultured in the identical medium without the compounds.

murine leukemia L1210 = assay: Antitumor activity test on murine leukemia L1210 in vivo; set-up: species or system male BDF1 mice; settings: days 1, 5, 9
Method: 2. Antitumor activity test on murine leukemia L1210 in vivo
Murine leukemia L1210 cells were maintained in the peritoneal cavities of 6-week-old male DBA/2 mice by weekly transfer in accordance with the procedure described in cancer chemotherapy Reports, Part 3, 3(2), 7 (1972). Specifically, 1×10^6 leukemia cells were inoculated into the abdominal cavities of 6-week-old male BDF1 mice weighing 21±3 g on day 0. Each treatment group consisted of seven mice. The test compounds were dissolved or suspended in 0.5% carboxymethyl cellulose(CMC)solution (in water) and were administered intraperitoneally on days 1, 5, and 9 relative to the tumor inoculation.
Thirty mice of 6-week-old male BDF1 weighing 21±3 g were used as the control group, which were injected with 0.5% CMC solution only in the same manner as above.
Anti-tumor activities of the compounds were evaluated in terms of the T/C % values calculated from the mean survival time(T) of the compound-treated group over that(C) of the control group. [formula]

Structure (SMILES)	IC50 (concentration required for 50% inhibition of growth) [1] [µg/mL]	T/C (%) (murine leukemia L1210; 12.5 mg/kg i.p.)	T/C (%) (murine leukemia L1210; 25 mg/kg i.p.)	T/C (%) (murine leukemia L1210; 50 mg/kg i.p.)	T/C (%) (murine leukemia L1210; 100 mg/kg i.p.)
CC1(C)OC2C[NH2+][Pt-2]3([NH2+]CC2O1)[O]C(=O)CC(=O)[O]3 [Example 36, cis-malonato[(4R,5R)-4,5-bis(aminomethyl)-2,2-dimethyl-1,3-dioxolane]platinum(II)]	0.76	133	179	190	
O=C1CC(=O)[O][Pt-2]2([NH2+]CC3OC4(CCCC4)OC3C[NH2+]2)[O]1 [Example 39, cis-malonato[(4R,5R)-4,5-bis(aminomethyl)-1,3-dioxolane-2-spiro-1'-cyclopentane]platinum(II)]	0.31	217	169	203	
CCC1OC2C[NH2+][Pt-2]3([NH2+]CC2O1)[O]C(=O)C(C)(C)C(=O)[O]3 [Example 40, cis-dimethylmalonato[(4R,5R)-4,5-bis(aminomethyl)-2-ethyl-1,3-dioxolane]platinum(II)]	0.52		213	165	248
CC(C)C1OC2C[NH2+][Pt-2]3([NH2+]CC2O1)[O]C(=O)C(C)(C)C(=O)[O]3 [Example 41, cis-dimethylmalonato[(4R,5R)-4,5-bis(aminomethyl)-2-isopropyl-1,3-dioxolane]platinum(II)]	0.44		123	174	204
CC1(C)C(=O)[O][Pt-2]2([NH2+]CC3OC4(CCCC4)OC3C[NH2+]2)[O]C1=O [Example 42, cis-dimethylmalonato[(4R,5R)-4,5-bis(aminomethyl)-1,3-dioxolane-2-spiro-1'-cyclopentane]platinum(II)]	0.54		172	160	150

Continued, in another order:

IC50 (concentration required for 50% inhibition of growth) [1] [µg/mL]	Structure (SMILES)	T/C (%) (murine leukemia L1210; 12.5 mg/kg i.p.)	T/C (%) (murine leukemia L1210; 25 mg/kg i.p.)	T/C (%) (murine leukemia L1210; 50 mg/kg i.p.)	T/C (%) (murine leukemia L1210; 100 mg/kg i.p.)
0.50	O=C1CC(=O)[O][Pt-2]2([NH2+]CC3OCOC3C[NH2+]2)[O]1 [Example 33, cis-malonato[(4R,5R)-4,5-bis(aminomethyl)-1,3-dioxolane]platinum(II)]	146	133	276	
0.60	CC1OC2C[NH2+][Pt-2]3([NH2+]CC2O1)[O]C(=O)CC(=O)[O]3 [Example 34, cis-malonato[(4R,5R)-4,5-bis(aminomethyl)-2-methyl-1,3-dioxolane]platinum(II)]	140	156	241	
0.44	CCC1OC2C[NH2+][Pt-2]3([NH2+]CC2O1)[O]C(=O)CC(=O)[O]3 [Example 35, cis-malonato[(4R,5R)-4,5-bis(aminomethyl)-2-ethyl-1,3-dioxolane]platinum(II)]	144	204	245	
